The text below walks through data of PMC7445967, “The Potential of Atractylodin-Loaded PLGA Nanoparticles as Chemotherapeutic for Cholangiocarcinoma” (Asian Pacific Journal of Cancer Prevention : APJCP, 2020).

Data set [1] concerns HuCC-T1 cholangiocarcinoma cell line. As to the kind of experiment: MTT cytotoxicity assay, HuCC-T1. The settings on record: for Cell viability: highest concentration (atractylodin 125 µg/mL, ALNPs-1 6,000 µg/mL), range. Here is the method:
(§1) Human cholangiocarcinoma (CCA) cell lines, CL-6 and HuCC-T1, and normal fibroblast cell line, OUMS-36T-1F, were used for cytotoxicity assay. CL-6 and HuCC-T1 cell lines were cultured in RPMI medium and OUMS-36T-1F cell line was cultured in DMEM medium. Both culture media were prepared as complete medium supplemented with 10% (v/v) FBS and 1% antibiotic-antimycotic solution (100 IU/mL). All cell cultures were maintained at 37°C under 5% CO2 atmosphere and 95% humidity ([…] 150i, Thermo scientific, MA, USA).
(§2) For cytotoxicity assay, the CCA and normal cell lines were exposed to various concentrations of ALNPs-1 (47-6,000 µg/mL, 100 µL each), blank NPs-1 (47-6,000 µg/mL, 100 µL each), atractylodin (1-125 µg/mL), 5-FU (positive control, 1-125 µg/mL), or serum-free medium (negative control) in a 96-well plate. Briefly, 8,000 cells (in 100 µL complete medium) were seeded into each well and pre-incubated at 37°C under 5% CO2 for 24 h. Viability of each cell following exposure to ALNPs-1, blank NPs-1, atractylodin, and 5-FU was determined by MTT assay at 24, 48, and 72 h of exposure (Chittasupho et al., 2017). Absorbance of cell suspension was measured at 550 nm using UV Absorbance Reader (Vario skan flash, Thermo Fisher scientific, MA, USA). Cell viability was calculated using the Equation (4):
(§3) Cell viability %=Absorbance of cell treated with sample/absorbance of negative control cells×100
(§4) IC50 (concentration that inhibits cell growth by 50%) of each compound in each cell line was determined using Graphpad Prism version 7.04 (GraphPad Software, CA, USA). Selectivity index (SI) was determined from the ratio of IC50 of ALNPs-1, atractylodin, or 5-FU in normal cell and CCA cell.

The subject of data set [2] is CL-6 cholangiocarcinoma cell line. As to the kind of experiment: MTT cytotoxicity assay, CL-6. The settings on record: for Cell viability: highest concentration (atractylodin 125 µg/mL, ALNPs-1 6,000 µg/mL), range. Here is the method: as §1, §2, §3, §4
In general terms: Tetrazolium assays rely on reduction of a dye to a coloured formazan, in cell work by metabolically active cells.

Data set [3] deals with OUMS-36T-1F normal fibroblast cell line. As to the kind of experiment: MTT cytotoxicity assay, OUMS-36T-1F. The settings on record: for Cell viability: highest concentration (atractylodin 125 µg/mL, ALNPs-1 6,000 µg/mL), range. On the procedure:
as §1, §2, §3, §4

For data set [4] the following is noted: cited from earlier work.
The mark [5] stands for this setting: ratio of IC50 in normal cell (OUMS-36T-1F) and HuCC-T1, 24 hours.
Where [6] appears, read: ratio of IC50 in normal cell (OUMS-36T-1F) and HuCC-T1, 48 hours.
Where [7] appears, read: ratio of IC50 in normal cell (OUMS-36T-1F) and HuCC-T1, 72 hours.
Setting [8] is: ratio of IC50 in normal cell (OUMS-36T-1F) and CL-6, 24 hours.
Where [9] appears, read: ratio of IC50 in normal cell (OUMS-36T-1F) and CL-6, 48 hours.
Setting [10] is: ratio of IC50 in normal cell (OUMS-36T-1F) and CL-6, 72 hours.

≈ marks a conversion by molar mass, not a printed value. Where two headings read alike, the source gives them in different places.

With `O=c1[nH]cc(F)c(=O)[nH]1` [5-FU, 5-fluorouracil], the IC50 in data set [1] (Homo sapiens, HuCCT-1, 24 h) came to 38.9 µg/mL (≈ 299 µM); in data set [1] (Homo sapiens, HuCCT-1, 48 h), 25.9 µg/mL (≈ 199 µM); in data set [1] (Homo sapiens, HuCCT-1, 72 h), 8.2 µg/mL (≈ 63 µM); in data set [2] (Homo sapiens, 24 h) it was 77.4 µg/mL (≈ 595 µM); in data set [2] (Homo sapiens, 48 h), 38.8 µg/mL (≈ 299 µM); in data set [2] (Homo sapiens, 72 h), 3.46 µg/mL (≈ 26.6 µM). The IC50 in data set [3] (Homo sapiens, Fibroblast, 24 h) stood at 133 µg/mL (≈ 1020 µM); in data set [3] (Homo sapiens, Fibroblast, 48 h), 49.8 µg/mL (≈ 383 µM); in data set [3] (Homo sapiens, Fibroblast, 72 h), 30.8 µg/mL (≈ 237 µM). In addition, the “Selectivity index (SI)” value was found to be 3.41 in data set [1] (setting [5]); 1.92 in data set [1] (setting [6]); 3.75 in data set [1] (setting [7]); 1.71 in data set [2] (setting [8]); 1.28 in data set [2] (setting [9]); 8.90 in data set [2] (setting [10]).

As for `C/C=C/C#CC#C/C=C/c1ccco1` [Atractylodin], the IC50 in data set [1] (HuCC-T1, 24 h exposure, MTT) was 53.66 µg/mL (≈ 294 µM); in data set [1] (HuCC-T1, 48 h exposure, MTT), 59.74 µg/mL (≈ 328 µM); in data set [1] (HuCC-T1, 72 h exposure, MTT) it was 76.15 µg/mL (≈ 418 µM); in data set [2] (CL-6, 24 h exposure, MTT), 56.36 µg/mL (≈ 309 µM); in data set [2] (CL-6, 48 h exposure, MTT), 37.66 µg/mL (≈ 207 µM); in data set [2] (CL-6, 72 h exposure, MTT), 52.02 µg/mL (≈ 285 µM). Moreover, the IC50 stood at 84.33 µg/mL (≈ 463 µM) in data set [3] (OUMS-36T-1F, 24 h exposure, MTT); 58.16 µg/mL (≈ 319 µM) in data set [3] (OUMS-36T-1F, 48 h exposure, MTT); 69.03 µg/mL (≈ 379 µM) in data set [3] (OUMS-36T-1F, 72 h exposure, MTT). For the same compound, the Cell viability is on record as 23.72-30.39% in data set [1] (HuCC-T1, 24 hours); 16.18-17.18% in data set [1] (HuCC-T1, 48 hours); 16.43-20.57% in data set [1] (HuCC-T1, 72 hours); 24.38-33.56% in data set [2] (CL-6, 24 hours); 9.71-13.89% in data set [2] (CL-6, 48 hours); 9.12-10.27% in data set [2] (CL-6, 72 hours). Also, the Cell viability in data set [3] (OUMS-36T-1F, 24 hours) is recorded as 39.61-41.50%; in data set [3] (OUMS-36T-1F, 48 hours) it was 14.88-15.37%; in data set [3] (OUMS-36T-1F, 72 hours) it was 6.61-7.92%. Further, the “Selectivity index (SI)” value in data set [1] (setting [5]) is reported as 1.57; in data set [1] (setting [6]), 0.97; in data set [1] (setting [7]), 0.91; in data set [2] (setting [8]) it was 1.50; in data set [2] (setting [9]) it was 1.54; in data set [2] (setting [10]) it was 1.33. For the same compound, the Solubility in water in data set [4] (free atractylodin, ref TGSC Information System, 2019) was 7.541 µg/mL (≈ 41.4 µM); in data set [4] (soluble in organic solvents such as ethyl acetate, DMSO, acetone, ref ChemFaces, 2018), “insoluble in water”. For the same compound, the “Concentrations producing cytotoxic effect against normal cells” value in data set [3] (OUMS-36-1F normal cells) was 62.5 to 125 µg/mL.

The term IC50 denotes the point on the concentration scale where inhibition reaches its midpoint.
